# Measurements from US20110212999A1, “TRIAZOLE DERIVATIVES AND THEIR USE AS NICOTINIC ACETYLCHOLINE RECEPTOR MODULATORS” (NEUROSEARCH A/S, priority 2008, published 2011).
# Test system: not given
# Assay: not given
# Details: not given
row,Structure (SMILES),melting point
1,"c1cncc(-c2cn(-c3cccnc3)nn2)c1 [Compound 1B, 3-(1-Pyridin-3-yl-1H-[1,2,3]triazol-4-yl)-pyridine]",217 to 219 °C
2,"Fc1cccc(Cl)c1-c1cn(-c2cccnc2)nn1 [Compound 1E, 3-[4-(2-Chloro-6-fluoro-phenyl)-[1,2,3]triazol-1-yl]-pyridine]",94 to 95.2 °C
3,"[C-]#[N+]c1cccc(-c2cn(-c3ccc(Cl)nc3)nn2)c1 [Compound 1G, 2-Chloro-5-[4-(3-isocyano-phenyl)-[1,2,3]triazol-1-yl]-pyridine]",202.2 to 203.6 °C
4,"N#Cc1cccc(-n2cc(-c3ccc(Cl)nc3)nn2)c1 [Compound 1H, 3-[4-(6-Chloro-pyridin-3-yl)-[1,2,3]triazol-1-yl]-benzonitrile]",219.3 to 220 °C
5,"Fc1cccc(Cl)c1-n1cc(-c2cccnc2)nn1 [Compound 1I, 3-[1-(2-Chloro-6-fluoro-phenyl)-1H-[1,2,3]triazol-4-yl]-pyridine]",94.5 to 97.1 °C
6,"N#Cc1cccc(-n2cc(-c3cccnc3Cl)nn2)c1 [Compound 1J, 3-[4-(2-Chloro-pyridin-3-yl)-[1,2,3]triazol-1-yl]-benzonitrile]",181 to 182.6 °C
7,"[C-]#[N+]c1cccc(-c2cn(-c3cccnc3Cl)nn2)c1 [Compound 1K, 2-Chloro-3-[4-(3-isocyano-phenyl)-[1,2,3]triazol-1-yl]-pyridine]",184 to 185 °C

# The remaining lines, values ahead:
row,melting point,Structure (SMILES)
1,190.2 to 191.6 °C,"Fc1cncc(-c2cn(-c3cccnc3)nn2)c1 [Compound 1L, 3-Fluoro-5-(1-pyridin-3-yl-1H-[1,2,3]triazol-4-yl)-pyridine]"
2,187 to 188.7 °C,"Fc1ccc(-c2cn(-c3cccnc3)nn2)cn1 [Compound 1M, 2-Fluoro-5-(1-pyridin-3-yl-1H-[1,2,3]triazol-4-yl)-pyridine]"
3,205.6 to 206.9 °C,"COc1ccc(-c2cn(-c3cccnc3)nn2)cn1 [Compound 1N, 2-Methoxy-5-(1-pyridin-3-yl-1H-[1,2,3]triazol-4-yl)-pyridine]"
4,190.6 to 191.7 °C,"Fc1cncc(-n2cc(-c3cccnc3)nn2)c1 [Compound 1O, 3-Fluoro-5-(4-pyridin-3-yl-[1,2,3]triazol-1-yl)-pyridine]"
5,221.3 to 222.6 °C,"Fc1ccc(-n2cc(-c3cccnc3)nn2)cn1 [Compound 1P, 2-Fluoro-5-(4-pyridin-3-yl-[1,2,3]triazol-1-yl)-pyridine]"
6,226.2 to 227.8 °C,"Brc1cncc(-n2cc(-c3cccnc3)nn2)c1 [Compound 1Q, 3-Bromo-5-(4-pyridin-3-yl-[1,2,3]triazol-1-yl)-pyridine]"
7,156.3 to 158.2 °C,"Fc1cccc(-n2cc(-c3cccnc3)nn2)c1 [Compound 1R, 3-[1-(3-Fluoro-phenyl)-1H-[1,2,3]triazol-4-yl]-pyridine]"
8,179.9 to 190.9 °C,"Fc1ccc(-n2cc(-c3cccnc3)nn2)cc1 [Compound 1S, 3-[1-(4-Fluoro-phenyl)-1H-[1,2,3]triazol-4-yl]-pyridine]"

# Molecular target: T1, human nicotinic acetylcholine receptor subtype a4b2 (Homo sapiens, UniProt P17787+P43681)
# T1 construct: expressed in transfected cells; host or cells: HEK-293
# T1 sequence (P43681 29-627 limits assumed): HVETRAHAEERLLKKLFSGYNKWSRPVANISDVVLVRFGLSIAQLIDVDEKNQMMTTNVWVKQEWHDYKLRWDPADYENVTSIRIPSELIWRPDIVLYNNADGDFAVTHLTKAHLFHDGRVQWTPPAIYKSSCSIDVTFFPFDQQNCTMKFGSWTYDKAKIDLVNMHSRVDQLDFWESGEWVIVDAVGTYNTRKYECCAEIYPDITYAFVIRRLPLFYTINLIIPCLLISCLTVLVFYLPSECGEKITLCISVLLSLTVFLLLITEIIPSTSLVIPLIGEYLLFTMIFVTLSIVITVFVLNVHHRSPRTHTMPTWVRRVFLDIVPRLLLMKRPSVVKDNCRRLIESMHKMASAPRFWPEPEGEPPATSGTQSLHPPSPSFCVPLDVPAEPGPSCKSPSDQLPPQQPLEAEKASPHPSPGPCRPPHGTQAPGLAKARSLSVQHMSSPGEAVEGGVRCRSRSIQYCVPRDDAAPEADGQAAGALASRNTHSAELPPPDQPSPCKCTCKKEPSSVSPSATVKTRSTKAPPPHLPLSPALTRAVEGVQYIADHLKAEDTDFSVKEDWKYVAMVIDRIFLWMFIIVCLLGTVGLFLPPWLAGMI
# T1 sequence (P17787 26-502): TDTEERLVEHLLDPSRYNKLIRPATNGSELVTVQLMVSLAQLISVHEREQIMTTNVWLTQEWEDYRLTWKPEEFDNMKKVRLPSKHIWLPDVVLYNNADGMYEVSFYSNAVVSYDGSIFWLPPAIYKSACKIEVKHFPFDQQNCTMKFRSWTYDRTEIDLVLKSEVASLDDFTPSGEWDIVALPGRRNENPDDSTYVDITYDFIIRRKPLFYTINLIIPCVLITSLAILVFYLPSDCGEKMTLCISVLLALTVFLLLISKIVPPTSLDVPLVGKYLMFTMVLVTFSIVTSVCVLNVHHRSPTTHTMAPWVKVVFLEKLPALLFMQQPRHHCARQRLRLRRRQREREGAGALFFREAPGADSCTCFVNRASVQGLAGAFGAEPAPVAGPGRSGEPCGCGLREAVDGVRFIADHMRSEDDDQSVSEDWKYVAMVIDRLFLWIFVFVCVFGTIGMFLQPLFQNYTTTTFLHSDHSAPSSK
# Assay: FLIPR nAChR a4b2 positive allosteric modulator activity (shift of nicotine concentration-response)
# Assay type: cell-based
# Details: nicotine +/- test compound, HEK-293 cells stably expressing hα4β2
# Method: Characterization of hα4β2 positive allosteric modulators using FLIPR
# The modulator activity is determined as a fluorescence-based assay using a Fluorometric Imaging Plate Reader (FLIPR) as described below in more detail.
# Full concentration-response curves of nicotine +/− test compound are generated and delta pEC50 values are calculated based on EC50 values for nicotine +/− test compound. EC50 values (Effective Concentration 50%) represent the concentration of the nicotine, at which the nicotine-induced response is 50% of the maximal nicotine-induced response.
# Preferred compounds of the invention show an activity determined as delta pEC50 values above 1 in the presence of 10 μM of the test compound compared to nicotine alone.
row,Structure (SMILES),Delta pEC50
1,"N#Cc1cccc(-n2cc(-c3cccnc3)nn2)c1 [Compound 1, 3-(4-Pyridin-3-yl-[1,2,3]triazol-1-yl)-benzonitrile]",1.6
2,"N#Cc1ccc(-n2cc(-c3cccnc3)nn2)o1 [Compound 2, 5-(4-pyridin-3-yl-[1,2,3]triazol-1-yl)-furan-2-carbonitrile]",1.2
